For the test, the target named is T1, ATR kinase (full-length ATR) (Homo sapiens, UniProt Q13535).
T1 construct: Assays were carried out at 25° C. in the presence of 5 nM full-length ATR
The test can be described thus: ATR Inhibition Assay (radioactive-phosphate incorporation). The note with it: Ki(app), 5 nM full-length ATR, 10 μM ATP, 800 μM target peptide, 25° C., read-out: ATR Inhibition Ki. Type of test: biochemical. In outline:
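Radiometric 33P filter assay with 5 nM full-length ATR in 50 mM Tris/HCl pH 7.5, 10 mM MgCl2, 1 mM DTT at 25 °C. Final 10 μM [γ-33P]ATP and 800 μM peptide; 10 min compound preincubation, ATP start, stopped at 24 h with phosphoric acid/ATP. Ki(app) from non-linear regression of background-corrected initial rates.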

Where two headings read alike, the source gives them in different places. Bounds are passed on as bounds.

The values that follow come from patent US9096602B2, “Substituted pyrrolo[2,3-B]pyrazines as ATR kinase inhibitors” (Vertex Pharmaceuticals Incorporated, priority 2011, dated 2015).

T1 sequence (Q13535 whole entry): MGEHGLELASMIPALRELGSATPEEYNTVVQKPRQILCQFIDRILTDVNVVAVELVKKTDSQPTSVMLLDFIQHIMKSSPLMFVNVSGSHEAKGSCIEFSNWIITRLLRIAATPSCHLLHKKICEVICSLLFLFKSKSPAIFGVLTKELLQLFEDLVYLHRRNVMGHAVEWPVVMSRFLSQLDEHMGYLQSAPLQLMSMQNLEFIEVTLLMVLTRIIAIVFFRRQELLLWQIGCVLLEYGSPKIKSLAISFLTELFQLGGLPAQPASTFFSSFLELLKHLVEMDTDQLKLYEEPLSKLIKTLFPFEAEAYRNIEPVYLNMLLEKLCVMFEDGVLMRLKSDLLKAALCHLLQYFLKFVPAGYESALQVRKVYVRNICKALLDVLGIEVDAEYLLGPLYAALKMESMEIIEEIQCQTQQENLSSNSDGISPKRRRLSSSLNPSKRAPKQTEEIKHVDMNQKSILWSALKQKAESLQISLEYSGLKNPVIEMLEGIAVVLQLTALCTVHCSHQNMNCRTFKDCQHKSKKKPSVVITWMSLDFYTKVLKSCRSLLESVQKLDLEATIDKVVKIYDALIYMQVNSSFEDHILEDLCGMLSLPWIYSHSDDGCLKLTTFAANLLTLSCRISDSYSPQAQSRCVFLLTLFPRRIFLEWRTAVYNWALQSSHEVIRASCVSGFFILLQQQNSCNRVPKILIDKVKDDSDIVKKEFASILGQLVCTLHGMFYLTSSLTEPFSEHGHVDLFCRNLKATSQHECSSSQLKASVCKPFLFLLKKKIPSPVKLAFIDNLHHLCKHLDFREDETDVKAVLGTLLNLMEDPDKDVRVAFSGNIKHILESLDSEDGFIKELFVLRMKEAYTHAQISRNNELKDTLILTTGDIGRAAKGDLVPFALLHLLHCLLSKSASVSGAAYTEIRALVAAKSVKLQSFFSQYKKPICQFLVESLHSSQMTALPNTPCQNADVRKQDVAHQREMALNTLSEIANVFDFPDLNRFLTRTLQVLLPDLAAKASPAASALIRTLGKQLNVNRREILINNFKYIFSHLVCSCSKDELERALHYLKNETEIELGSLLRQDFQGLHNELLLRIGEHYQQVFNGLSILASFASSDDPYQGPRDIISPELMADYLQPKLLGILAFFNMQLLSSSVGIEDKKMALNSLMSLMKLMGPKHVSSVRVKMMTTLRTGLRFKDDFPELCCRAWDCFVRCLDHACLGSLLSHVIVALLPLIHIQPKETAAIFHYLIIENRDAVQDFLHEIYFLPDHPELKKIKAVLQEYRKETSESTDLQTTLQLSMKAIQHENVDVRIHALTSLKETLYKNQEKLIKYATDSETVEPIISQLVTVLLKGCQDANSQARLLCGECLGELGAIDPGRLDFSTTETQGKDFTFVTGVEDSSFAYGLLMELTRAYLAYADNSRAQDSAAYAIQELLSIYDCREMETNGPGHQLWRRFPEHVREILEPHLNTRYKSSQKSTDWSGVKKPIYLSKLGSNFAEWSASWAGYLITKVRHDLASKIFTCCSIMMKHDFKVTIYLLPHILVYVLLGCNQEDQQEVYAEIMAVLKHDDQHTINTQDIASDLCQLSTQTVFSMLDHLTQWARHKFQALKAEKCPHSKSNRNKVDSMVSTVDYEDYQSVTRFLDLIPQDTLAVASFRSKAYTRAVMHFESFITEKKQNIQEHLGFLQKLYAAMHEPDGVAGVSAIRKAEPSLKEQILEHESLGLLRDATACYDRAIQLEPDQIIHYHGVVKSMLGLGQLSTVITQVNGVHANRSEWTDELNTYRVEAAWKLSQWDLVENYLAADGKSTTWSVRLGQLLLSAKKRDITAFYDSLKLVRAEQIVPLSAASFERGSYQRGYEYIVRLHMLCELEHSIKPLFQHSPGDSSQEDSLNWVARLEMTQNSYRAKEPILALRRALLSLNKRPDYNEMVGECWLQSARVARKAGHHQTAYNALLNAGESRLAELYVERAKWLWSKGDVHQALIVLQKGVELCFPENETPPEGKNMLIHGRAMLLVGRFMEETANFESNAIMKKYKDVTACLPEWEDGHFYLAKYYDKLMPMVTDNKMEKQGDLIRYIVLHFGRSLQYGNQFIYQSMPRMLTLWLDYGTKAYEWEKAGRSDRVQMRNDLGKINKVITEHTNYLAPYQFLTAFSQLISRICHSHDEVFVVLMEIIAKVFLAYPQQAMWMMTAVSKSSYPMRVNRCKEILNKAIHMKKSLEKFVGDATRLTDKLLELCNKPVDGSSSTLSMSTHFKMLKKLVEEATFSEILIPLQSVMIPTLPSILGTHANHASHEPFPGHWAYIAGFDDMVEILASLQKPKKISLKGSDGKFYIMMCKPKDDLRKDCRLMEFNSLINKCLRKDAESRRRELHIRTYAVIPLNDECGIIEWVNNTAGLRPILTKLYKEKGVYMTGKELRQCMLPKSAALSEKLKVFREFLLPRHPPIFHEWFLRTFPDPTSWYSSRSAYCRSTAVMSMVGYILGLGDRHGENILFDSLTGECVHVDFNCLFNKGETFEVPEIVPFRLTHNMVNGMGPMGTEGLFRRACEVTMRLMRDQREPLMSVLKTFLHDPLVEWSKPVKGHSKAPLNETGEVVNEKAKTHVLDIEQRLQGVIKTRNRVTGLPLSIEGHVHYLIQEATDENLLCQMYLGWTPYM

For `CC(C)S(=O)(=O)c1ccc(-c2cnc3[nH]cc(C(=O)Nc4ccccc4CCO)c3n2)cc1` [Compound I-50, N-[2-(2-hydroxyethyl)phenyl]-2-(4-isopropylsulfonylphenyl)-5H-pyrrolo[2,3-b]pyrazine-7-carboxamide], under “class symbols”, the Ki fell in the range of 100 to 500 nM. Still for that read-out and setting: the value for `CC(C)S(=O)(=O)c1ccc(-c2cnc3[nH]cc(C(=O)NC(CCO)c4ccc(F)cc4)c3n2)cc1` (stereo not drawn) [Compound I-78, N-[1-(4-fluorophenyl)-3-hydroxy-propyl]-2-(4-isopropylsulfonylphenyl)-5H-pyrrolo[2,3-b]pyrazine-7-carboxamide] was 100 to 500 nM; that for `CC(C)S(=O)(=O)c1ccc(-c2cnc3[nH]cc(C(=O)NC(CCO)c4ccc(N)cc4)c3n2)cc1` (stereo not drawn) [Compound I-80, N-[1-(4-aminophenyl)-3-hydroxy-propyl]-2-(4-isopropylsulfonylphenyl)-5H-pyrrolo[2,3-b]pyrazine-7-carboxamide] was 100 to 500 nM. Still for that read-out and setting: the value for `CC(C)S(=O)(=O)c1ccc(-c2cnc3[nH]cc(C(=O)N[C@@H](CO)c4ccccc4)c3n2)cc1` [Compound I-56, N-[(1R)-2-hydroxy-1-phenyl-ethyl]-2-(4-isopropylsulfonylphenyl)-5H-pyrrolo[2,3-b]pyrazine-7-carboxamide] was 100 to 500 nM. `CC(C)S(=O)(=O)c1ccc(-c2cnc3[nH]cc(C(=O)N4CCCC4CO)c3n2)cc1` (stereo not drawn) [Compound I-40, [2-(hydroxymethyl)pyrrolidin-1-yl]-[2-(4-isopropylsulfonylphenyl)-5H-pyrrolo[2,3-b]pyrazin-7-yl]methanone]: the Ki (class symbols) is 500 to 5000 nM. On the same count and under the same terms, next, `CC(C)S(=O)(=O)c1ccc(-c2cnc3[nH]cc(C(=O)Nc4ccccc4O)c3n2)cc1` [Compound I-25, N-(2-hydroxyphenyl)-2-(4-isopropylsulfonylphenyl)-5H-pyrrolo[2,3-b]pyrazine-7-carboxamide]: below 100 nM; `CC(C)S(=O)(=O)c1ccc(-c2cnc3[nH]cc(C(=O)N[C@@H](C)c4ccc(F)cc4)c3n2)cc1` [Compound I-74, N-[(1S)-1-(4-fluorophenyl)ethyl]-2-(4-isopropylsulfonylphenyl)-5H-pyrrolo[2,3-b]pyrazine-7-carboxamide]: 500 to 5000 nM.

Turning to `CC(C)S(=O)(=O)c1ccc(-c2cnc3[nH]cc(C(=O)N4CCOc5ccccc5C4)c3n2)cc1` [Compound I-130, 3,5-dihydro-2H-1,4-benzoxazepin-4-yl-[2-(4-isopropylsulfonylphenyl)-5H-pyrrolo[2,3-b]pyrazin-7-yl]methanone], the Ki (given as numeric lower bound without unit) was above 250 nM. Regarding `CC(C)S(=O)(=O)c1ccc(-c2cnc3[nH]cc(C(=O)NCc4ccccn4)c3n2)cc1` [Compound I-52, 2-(4-isopropylsulfonylphenyl)-N-(2-pyridylmethyl)-5H-pyrrolo[2,3-b]pyrazine-7-carboxamide], the Ki (class symbols) fell in the range of 100 to 500 nM.
